The values that follow come from US7563766B2, “Methods and compositions for the promotion of a hair growth utilizing actin binding peptides” (The United States of America as represented by the …, priority 2002, dated 2009).

“Also recorded” adds a separate entry of the source. Ends that are not written are not given here.

In data set [1] the test system is hair follicles. Put plainly: Topical thymosin β4 on normal (unwounded) shaved rat skin. It is filed as in vivo. The conditions noted are these: 30 days after treatment. The procedure:
In these experiments, 8 week old female Sprague Dawley rats were utilized. Thymosin β4 was applied on the shaved backs of the animals at a concentration of 0.5 mg/ml in hydrogel three times per week (Monday, Wednesday and Friday). The hair of the animals was observed over 30 days. Some of the animals were sacrificed on day 7 after the initiation of treatment, while others were sacrificed on day 30 after initiation of treatment. Tissue sections were prepared using methods known in the art, as indicated above in Example 1. The tissue section samples were all read and compared on a blind basis by an observer trained in dermatology.
One study used shaved rats where thymosin β4 was applied topically on one side of the shaved area and on the opposing lateral side a control vehicle was applied. […] The number of anagen follicles was approximately two-fold greater than in rats treated with the control vehicle alone (see FIG. 7D). […] The increased number of hairs in the anagen phase was retained with continued tri-weekly treatment over 30 days. However, within 14 days of ceasing treatment, the number of active hair follicles decreased to control levels.

For data set [2], the system named is male patients between 18 and 41 years of age; post-menopausal women. The conditions noted are these: cited from earlier work.
For data set [3], the system named is male and female androgenetic patients. The conditions noted are these: human, in vivo; cited from earlier work.
Data set [4] relates to hair follicles. Put plainly: Topical thymosin β4 or T-3 on shaved aged BALB/c mice. It is filed as in vivo, mouse. The conditions noted are these: 5 μg/50 μl in water. The procedure:
These mice are considered highly aged as they are alive beyond the normal mouse life expectancy. […] The mice were shaved and treated as described above with thymosin β4 at the time of shaving and 48 hours later. At day 7, the skin was harvested and examined histologically, as described above in Example 1.
The T-3 fragment was produced using an automated peptide synthesizer, as is well known in the art.
The synthetic T-3 peptide was applied in a water solution/mixture at a concentration/dose of 5 μg/50 μl. […] Thus, a fragment of thymosin β4 comprising these amino acids is useful in hair regeneration compositions.

The subject of data set [5] is human umbilical vein endothelial cells. Put plainly: HUVEC migration, Boyden chamber assay. It is filed as cell-based. More on the design: key to Migration: − = no activity; +/− = low activity; + = active; ++ = high activity. The conditions noted are these: for Migration: Table 2 score. As to the method: (§1) Cells—HUVECs were isolated and used at passages 2-5. Grant et al., J. Cell Sci. 108:3685-3694 (1995). The cells were cultured in RPMI 1640 (Invitrogen, Carlsbad, Calif.) supplemented with 20% bovine calf serum (Hyclone Laboratories, Logan, Utah), 200 μg/ml of endothelial cell growth supplement (ECGS) (Collaborative Biomedical Products, Bedford, Mass.), 0.8 U/ml heparin sodium (Fisher Scientific, Pittsburgh, Pa.), penicillin/streptomycin (Invitrogen, Carlsbad, Calif.), 10 μg/ml gentamycin (Invitrogen, Carlsbad, Calif.), and 1% fungizone (Invitrogen, Carlsbad, Calif.).
Boyden chamber assay—HUVEC migration assays were conducted in a 48-well micro-chemotaxis chamber (Neuro Probe Inc., Cabin John, Md.) as previously described in Salcedo et al., J. Immunol. 166:7571-7578 (2001). Briefly, PVP-free polycarbonate membranes with 8 μm pores were coated with 50 μg/ml of rat tail collagen (BD Biosciences, Bedford, Mass.) in RPMI 1640 that contained 25 mM HEPES (Invitrogen, Carlsbad, Calif.) at 4° C. overnight. The membranes were dried at least 1 hr prior to use. HUVECs were serum-starved for 2 hr, harvested using Versene (Invitrogen, Carlsbad, Calif.), and resuspended in binding medium that contained RPMI 1640 with 1% BSA and 25 mM HEPES. The lower wells of the chamber were loaded with 1, 10, 100, and 1000 ng/ml of thymosin β4 or peptide fragments that were diluted in binding medium. Basic fibroblast growth factor (bFGF) (200 ng/ml) was used as a positive control. Cells were added to the upper portion of the chamber at a concentration of 50,000 cells per well. The chambers were incubated at 37° C. for 4 hr. The filters were fixed and stained using Diff-Quik (VWR, Bridgeport, N.J.). The cells that successfully migrated through the pores of the membrane were manually quantitated using a CK-2 Olympus microscope at 10× magnification. Each condition was assayed in triplicate, and the assay was repeated twice.

The subject of a further data set is chick aortic arches. Put plainly: Chick aortic arch vessel sprouting assay. Format: cell-based. Details: key to Sprouting: − = no activity; +/− = low activity; + = active; ++ = high activity. The conditions noted are these: for Sprouting: Table 2 score; for activity in the assays (endothelial cell migration and vessel sprouting): statement covers both migration and sprouting assays; for effect of actin on thymosin β4-mediated sprouting: 5-50 nM. The procedure:
Chick aortic arch assay—The aortic arch of 13-day-old chick embryos was removed and placed in RPMI 1640. After removal of surrounding connective tissue, transverse sections of the arch were made (1 mm). The resulting aortic rings were carefully attached to the bottom of a 48-well plate, one ring per well, with 20-30 μl of Matrigel (Collaborative Biomedical Products). The rings were placed so that the lumen of each ring could be seen. More Matrigel was added onto the top of the rings to seal them in place. A 100 μl volume of human endothelial—SFM basal growth medium (Invitrogen) containing 1% penicillin streptomycin was added to each well. Thymosin β4, peptide fragments, and exogenous actin (Sigma Chemical Co.) were added to wells in serum-free medium, bringing the final volume of each well to 400 μl. ECGS (200 μg/ml) was used as a positive control. The plates were incubated for 24 hr at 37° C. Rings were fixed and stained with Diff-Quik solution II. Sprouting was scored in a blind assessment by an observer using 10× magnification on an Olympus microscope. Six wells were used for each condition tested, and each assay was done three times.

Another data set relates to HUVEC. Put plainly: HUVEC cell adhesion assay. Format: cell-based, human. The procedure: as §1
Cell adhesion—In order to determine which ions are needed for HUVEC adhesion, Laminin-1 peptide (25 ng in 50 μl) and two test concentrations of Tβ4 (100 ng and 500 ng in 50 μl) in 0.1 M carbonate buffer, pH 9.4, were bound to the bottom of U-bottom 96-well plates overnight at 4° C. Wells were then washed twice with PBS and blocked with 150 μl of 3% BSA in PBS (Sigma Chemical Co., St. Louis, Mo.) at room temperature for 30 min. […] The remaining cells were stained with 0.2% crystal violet in 20% methanol, washed in water to remove excess stain, dried overnight at 37° C., and lysed with 10% SDS for 10 min, and the plate OD was read at 600 nm. (Molecular Devices precision microplate reader). […]

Where [6] appears, read: 1 mg/day oral for 2 years, male patients 18 to 41 years.

Regarding `CC[C@H](C)[C@H](NC(=O)[C@H](CCC(=O)O)NC(=O)[C@H](C)NC(=O)[C@H](CCSC)NC(=O)[C@H](CC(=O)O)NC(=O)[C@@H]1CCCN1C(=O)[C@H](CCCCN)NC(=O)[C@H](CC(=O)O)NC(=O)[C@H](CO)NC(C)=O)C(=O)N[C@@H](CCC(=O)O)C(=O)N[C@@H](CCCCN)C(=O)N[C@@H](Cc1ccccc1)C(=O)N[C@@H](CC(=O)O)C(=O)N[C@@H](CCCCN)C(=O)N[C@@H](CO)C(=O)N[C@@H](CCCCN)C(=O)N[C@@H](CC(C)C)C(=O)N[C@@H](CCCCN)C(=O)N[C@@H](CCCCN)C(=O)N[C@H](C(=O)N[C@@H](CCC(=O)O)C(=O)N[C@H](C(=O)N[C@@H](CCC(N)=O)C(=O)N[C@@H](CCC(=O)O)C(=O)N[C@@H](CCCCN)C(=O)N[C@@H](CC(N)=O)C(=O)N1CCC[C@H]1C(=O)N[C@@H](CC(C)C)C(=O)N1CCC[C@H]1C(=O)N[C@@H](CO)C(=O)N[C@@H](CCCCN)C(=O)N[C@@H](CCC(=O)O)C(=O)N[C@H](C(=O)N[C@H](C(=O)N[C@@H](CCC(=O)O)C(=O)N[C@@H](CCC(N)=O)C(=O)N[C@@H](CCC(=O)O)C(=O)N[C@@H](CCCCN)C(=O)N[C@@H](CCC(N)=O)C(=O)N[C@@H](C)C(=O)NCC(=O)N[C@@H](CCC(=O)O)C(=O)N[C@@H](CO)C(=O)O)[C@@H](C)CC)[C@@H](C)O)[C@@H](C)O)[C@@H](C)O` [Tβ4, Thymosin β4], in the data set with hair follicles [1], the “change in the epidermis or in the thickness of the dermis” value was “little change” and the inflammatory cells entry is “some increase”.

As for `CC(C)(C)NC(=O)[C@H]1CC[C@H]2[C@@H]3CC[C@H]4NC(=O)C=C[C@]4(C)[C@H]3CC[C@]12C` [finasteride], in data set [2] (setting [6]), the “cases in which further hair loss was prevented” value is 83% and the “cases with visible hair growth” value is given as 66%. Also, the “efficacy in post-menopausal women” value in data set [2] (1 mg/day over 1 year) was “ineffective”. Besides, the side effects result in data set [2] (human, in vivo) was “lack of libido, lack of potency, and mild reduction in semen”.

As for `Nc1cc(N2CCCCC2)nc(N)[n+]1[O-]` [minoxidil], in data set [3], the side effects entry was “scalp irritation and increased facial hair”.

Take LKKTETQ [Peptide T-3]: the “hair follicle development vs water alone” value in the data set with hair follicles [4] is “increased hair follicle development”. The “endothelial cell migration, in words” value in data set [5] was “fully active”. In the data set on chick aortic arches, the “vessel sprouting, in words” value is given as “fully active”; the Sprouting entry was “++”; the “activity in the assays (endothelial cell migration and vessel sprouting)” value (shortened to “activity in the assays”) is “generally highly active”.

As for “Tβ10: naturally occurring β-thymosin with conserved actin-binding domain (ADKPDMGEIASFDKAKLKKTETQEKNTLPTKETIEQEKRSEIS; UniProt P63313 2-44, looked up)”, the Migration result in data set [5] was “++”. In the data set with chick aortic arches, the Sprouting entry was “+”; the “activity in the assays” value is listed as “active”.

Turning to actin [reference compound], the “effect of actin on laminin-1-mediated adhesion” value with HUVEC (control) is “no effect”. Besides, the “effect of actin on cell adhesion to thymosin β4” value with HUVEC (soluble actin added, 5-50 nM) is given as “inhibited; also recorded: blocked adhesion”. Besides, the “vessel sprouting, in words” value with chick aortic arches is “angiogenic activity”. For the same compound, in the data set with chick aortic arches (exogenous actin added), the “effect of actin on ECGS-mediated vessel sprouting” value is “did not inhibit”. Also, the “effect of actin on thymosin β4-mediated sprouting” value with chick aortic arches (exogenous actin added) was “significantly inhibited”; in the data set with chick aortic arches (exogenous actin added, listed as soluble actin), “inhibited”.

As for “thymosin β4-sulfoxide (SDKPDMAEIEKFDKSKLKKTETQEKNPLPSKETIEQEKQAGES; Thymosin beta-4 methionine sulfoxide; UniProt P62328 2-44, looked up) [Tβ4^(O), sulfoxide form prepared from the naturally occurring peptide]”, the Migration entry in data set [5] is “++”. Moreover, in the data set with chick aortic arches, the Sprouting result is “++”; the “activity in the assays” value is listed as “active”.
